From publication PMC7822874, “Chemoprotective antimalarials identified through quantitative high-throughput screening of Plasmodium blood and liver stage parasites” (Scientific Reports, 2021)
Where two headings read alike, the source gives them in different places.

Experiments:
in vitro = conditions: human
[1] = test system: Plasmodium falciparum Dd2 asexual blood stage parasites; experiment: microbe, parasite or virus in culture; set-up: species or system Plasmodium falciparum Dd2 in human erythrocytes; single determination (one 11-point concentration-response curve); conditions: Plasmodium falciparum, DD2, Erythrocyte, 72 h
[2] = test system: P. berghei-ANKA-GFP-LucCON liver stage parasites in HepG2-A16-CD81EGFP cells; experiment: P. berghei liver stage Pb-Luc assay, Method 1 (UCSD, 1536-well); assay type: cell-based, Plasmodium berghei; conditions: Plasmodium berghei, 48 h; on Pb-Luc signal, 1 uM, repeat 1: reference of the scale not given here; on Pb-Luc signal, 1 uM, repeat 2: reference of the scale not given here; on Pb-Luc signal, 1 uM, repeat 3: reference of the scale not given here; on Pb-Luc signal, 3 uM, repeat 1: reference of the scale not given here; on Pb-Luc signal, 3 uM, repeat 2: reference of the scale not given here; on Pb-Luc signal, 3 uM, repeat 3: reference of the scale not given here
[3] = read-out: Pb-Luc P. berghei liver stage signal, repeat 1
[4] = read-out: Pb-Luc P. berghei liver stage signal, repeat 2
[5] = read-out: Pb-Luc P. berghei liver stage signal, repeat 3
[6] = HepG2-A16-CD81EGFP cells, uninfected
[7] = nominal 1 uM (10 mM stock), […] for 15 mM, 1.2 uM for 12 mM, 2 uM for 20 mM stock, average of 2 wells, repeat 2
[8] = nominal 3 uM (10 mM stock), 4.5 uM for 15 mM, 3.6 uM for 12 mM, 6 uM for 20 mM stock, average of 2 wells, repeat 2
[9] = nominal 1 uM (10 mM stock), […] for 15 mM, 1.2 uM for 12 mM, 2 uM for 20 mM stock, average of 2 wells, 1536-well plate, repeat 1, read-out: Pb-Luc signal, 1 uM, repeat 1
[10] = nominal 1 uM (10 mM stock), […] for 15 mM, 1.2 uM for 12 mM, 2 uM for 20 mM stock, average of 2 wells, 1536-well plate, repeat 2, read-out: Pb-Luc signal, 1 uM, repeat 2
[11] = nominal 1 uM (10 mM stock), […] for 15 mM, 1.2 uM for 12 mM, 2 uM for 20 mM stock, average of 2 wells, 1536-well plate, repeat 3, read-out: Pb-Luc signal, 1 uM, repeat 3
[12] = nominal 3 uM (10 mM stock), 4.5 uM for 15 mM, 3.6 uM for 12 mM, 6 uM for 20 mM stock, average of 2 wells, 1536-well plate, repeat 1, read-out: Pb-Luc signal, 3 uM, repeat 1
[13] = nominal 3 uM (10 mM stock), 4.5 uM for 15 mM, 3.6 uM for 12 mM, 6 uM for 20 mM stock, average of 2 wells, 1536-well plate, repeat 2, read-out: Pb-Luc signal, 3 uM, repeat 2
[14] = nominal 3 uM (10 mM stock), 4.5 uM for 15 mM, 3.6 uM for 12 mM, 6 uM for 20 mM stock, average of 2 wells, 1536-well plate, repeat 3, read-out: Pb-Luc signal, 3 uM, repeat 3

| Structure (SMILES) | viability at 48 h, 1 µM (in vitro; [6]) [%] | viability at 48 h, 3 µM (in vitro; [6]) [%] | HepG2 viability signal, 1 uM, repeat 2 (HepG2-A16-CD81EGFP cells; [7]) [%] | HepG2 viability signal, 3 uM, repeat 2 (HepG2-A16-CD81EGFP cells; [8]) [%] | AC50 ([1]; read-out: AC50) [nM] | activity at 1 µM [2, 9] [%] | activity at 1 µM [2, 10] [%] | activity at 1 µM [2, 11] [%] | activity at 3 µM [2, 12] [%] | activity at 3 µM [2, 13] [%] | activity at 3 µM [2, 14] [%] | further results |
| --- | --- | --- | --- | --- | --- | --- | --- | --- | --- | --- | --- | --- |
| Cc1ccc(O)c([C@H](CCN(C(C)C)C(C)C)c2ccccc2)c1 [NCGC00159519-02] | – | – | – | – | – | – | – | – | – | – | – | viability (in vitro): 103%; HepG2 viability, fourth HepG2 column (HepG2-A16-CD81EGFP cells; human): 99.21%; HepG2 viability, second HepG2 column (HepG2-A16-CD81EGFP cells; human): 104.09%; HepG2 viability, third HepG2 column (HepG2-A16-CD81EGFP cells; human): 100.98%; AC50 [1]: 4220 nM; activity at 1 µM [2, 3]: 106%; activity at 3 µM [2, 3]: 74.9%; activity at 1 µM [2, 4]: 80%; activity at 3 µM [2, 4]: 85.4%; activity at 1 µM [2, 5]: 106%; activity at 3 µM [2, 5]: 89% |
| O[C@H]1CC[C@@H](Cc2cc(-c3ccc(F)cc3)on2)O[C@@H]1CNC1CCCCC1 [NCGC00401034-01] | 104 | 107 | 105.13 | 100.53 | 2430 | 123 | 102 | 154 | 112 | 106 | 134 | – |
| O=C(Nc1ccc2c(N3CCCC3)ncnc2c1)c1cccc(Br)c1 [NCGC00425495-01] | 101 | 97.5 | 101.29 | 98.07 | 668 | 70.5 | 86.1 | 85.5 | 34.5 | 39.4 | 21.9 | – |
| Cc1ccc(C)c(Cn2c(=O)n(CCCCC(=O)NCc3ccc4c(c3)OCO4)c(=O)c3ccccc32)c1 [NCGC00106276-01] | 99.1 | 93.3 | 102.61 | 103.78 | 6680 | 69 | 120 | 109 | 132 | 95.7 | 87.2 | – |
| COc1ccc(-c2cc([C@H]3CN4CC[C@H]3C[C@@H]4CN[S+](=O)([O-])c3ccc(Cl)cc3)n(C)n2)cc1OC [NCGC00399828-01] | – | – | – | – | 2990 | 68.5 | 88.1 | 52.2 | 40.7 | 77 | 89.6 | viability at 48 h, 1 µM (in vitro): 98.9%; viability at 48 h, 3 µM (in vitro): 99.9%; HepG2 viability signal, 1 uM, repeat 2 (HepG2-A16-CD81EGFP cells; human, 48 h, 1 µM): 102.24%; HepG2 viability signal, 3 uM, repeat 2 (HepG2-A16-CD81EGFP cells; human, 48 h, 3 µM): 102.23% |
| CC1=C(C(=O)Nc2ccc(C)cc2C)C(c2cc(Br)ccc2F)n2ncc(C(=O)Nc3ccc(C)cc3)c2N1 (stereo not shown) [NCGC00126328-01] | 100 | 107 | 98.10 | 99.55 | 1500 | 99.2 | 113 | 121 | 61.3 | 103 | 73.4 | – |
| COc1ccccc1CN1COc2ccc3c(oc(=O)c4ccccc43)c2C1 [NCGC00116378-01] | 106 | 108 | 104.93 | 105.29 | 2110 | 85.6 | 85.1 | 110 | 73.3 | 86.8 | 88.1 | – |
| CCOc1ccc(Cl)cc1CN(C)CC1(O)CCCNC1 (stereo not shown) [NCGC00439019-01] | 99.5 | 96.9 | 100.51 | 101.33 | 2990 | 133 | 111 | 171 | 102 | 113 | 128 | – |
